Measured values taken from PMC6764326, “The Trials and Tribulations of Structure Assisted Design of KCa Channel Activators” (Frontiers in Pharmacology, 2019).

Key:
[1] = biological target: T1, KCa2.2 (Homo sapiens, UniProt P0DP23+Q9H2S1); test: QPatch automated whole-cell patch-clamp screen, 10 µM activator normalized to 10 µM SKA-31; format: cell-based; settings: 250 nM free internal Ca2+, HEK cells stably expressing channel
T1 construct: expressed in transfected cells
Protocol: (§1) All experiments were performed in either the inside-out or the whole-cell configuration of the patch-clamp technique on either transiently transfected CHO cells or Human Embryonic Kidney (HEK) cell lines stably expressing hKCa3.1 or hKCa2.2 ([Sankaranarayanan et al., 2009]). All cells were cultured in Dulbecco’s modified Eagle’s medium supplemented with 10% fetal calf serum. Wild-type (WT) and mutant hKCa3.1 channel constructs were transfected using FuGENE 6 transfection reagent (Promega, Madison, WI) in OptiMEM reduced-serum medium (Life Technologies, Benicia, CA) for manual patch-clamp experiments or via electroporation (Nucleofector 2b and Lonza Amaxa Cell Line Nucleofector Kit T) according to the manufacturer’s instructions for automated electrophysiology.
(§2) The procedure for performing automated whole-cell KCa channel recordings on a QPatch-16 automated electrophysiology platform (Sophion Biosciences) was previously described in detail by our laboratory ([Jenkins et al., 2013]). For the current study we used the solutions described above with disposable 16-channel planar patch chip plates (QPlates; patch hole diameter […], resistance 2.00–0.02MΩ, Sophion Biosciences, Woburn, MA). Cell positioning and sealing parameters were set as follows: positioning pressure -70 mbar, resistance increase for success 750%, minimum seal resistance 0.1 GΩ, holding potential -0 mV, holding pressure -20 mbar. To avoid rejection of cells with large KCa3.1 currents, the minimum seal resistance for whole-cell requirement was lowered to 0.001 GΩ. Access was obtained with the following sequence: 1) suction pulses in 29 mbar increments from -250 mbar to -453 mbar; 2) a suction ramp of an amplitude of -450 mbar; 3) -400 mV voltage zaps of 1 ms duration. Following establishment of the whole-cell configuration, cells were held at -80 mV and KCa currents elicited by a voltage protocol that held at -80 mV for 20 ms, stepped to -120 mV for 20 ms, ramped from -120 to + 40 mV in 200 ms, and then stepped back to -120 mV for 20 ms. This pulse protocol was applied every 10 s. KCa activator dilutions were prepared freshly (within 5 min of the initiation of the QPatch) with Ringer’s solution from 10 mM stock solutions in dry DMSO. Final DMSO concentrations never exceeded 1%. Glass vial inserts (to avoid adsorption) were filled with 400 µL of compound solution and placed into the insert base plate for use in the QPatch assay. Exemplary QPatch raw current traces and plots of slope conductance versus time are shown in Supplementary Figure 3 . For each compound we typically used 12 consecutive liquid periods Break-in, 3 saline additions to stabilize the current, 2 additions of test compound at 10 µM, 2 saline washes, 2 additions of SKA-31 at 10 µM, followed by 2 more saline washes. In each liquid period 10 pulse protocols were run.
(§3) The newly synthesized compounds were tested by automated whole-cell patch-clamp for their ability to activate KCa2.2 and KCa3.1 channels stably expressed in HEK cells. […] A promising compound would ideally do both. […] We started by comparing the effect of the SKA-74 derivatives to SKA-31 ( Figure 4A ).
(§4) Figure 4 Whole-cell KCa3.1 and KCa2.2 responses elicited by 10 µM of activator and normalized to 10 µM of the mixed activator SKA-31. Experiments were performed by automated electrophysiology with 250 nM of free internal Ca^2+. In each experiment the new activator was tested first, washed out with 2 saline additions, and then SKA-31 was applied as positive control for normalization of the response. (A) Screening of SKA-74 derivatives. (B) Screening of SKA-75 and SKA-76 derivatives. The bar graphs show means ± SD of the slope conductance measured between −85 and −65 mV (n = 2–7 cells). Chemical structures are shown below the bar graphs.
(§5) Figure 5 Whole-cell KCa3.1 and KCa2.2 responses elicited by 10 µM of activator and normalized to 10 µM of the mixed activator SKA-31. […]

[2] = biological target: T2, KCa3.1 (Homo sapiens, UniProt O15554+P0DP23); test: as above; format: cell-based; settings: for Whole-cell KCa3.1 response elicited by 10 µM of activator normalized to 10 µM SKA-31 (described in words): 250 nM free internal Ca2+, HEK cells stably expressing channel; for Selectivity between KCa3.1 and KCa2.2 in the 10 µM screen: KCa3.1 versus KCa2.2, 250 nM free Ca2+
T2 construct: expressed in transfected cells
Protocol: as §1, §2, §3, §4, §5

Compound	Whole-cell KCa2.2 response elicited by 10 µM of activator normalized to 10 µM SKA-31 (described in words) [1]	Whole-cell KCa3.1 response elicited by 10 µM of activator normalized to 10 µM SKA-31 (described in words) [2]	Selectivity between KCa3.1 and KCa2.2 in the 10 µM screen [2]	melting point [°C]
2-Aminonaphtho[1,2-d]oxazole-5-sulfonic acid [SKA-128]	drastically reduced potency	drastically reduced potency		
5,6-Dinitronaphtho[1,2-d]thiazol-2-amine [SKA-218]			preserved the selectivity for KCa3.1	
Cc1nc2c(cc(Cl)c3ccccc32)s1 [SKA-130, 5-Chloro-2-methylnaphtho[1,2-d]thiazole]	decreased activity		preserved selectivity for KCa3.1	
Cc1nc2c(cc(Br)c3ccccc32)s1 [SKA-132, 5-Bromo-2-methylnaphtho[1,2-d]thiazole]	decreased activity		preserved selectivity for KCa3.1	
Cc1nc2c(cc(Br)c3ccccc32)o1 [SKA-133, 5-Bromo-2-methylnaphtho[1,2-d]oxazole]	decreased activity		preserved selectivity for KCa3.1	101 to 102
Nc1nc2cc3ccccc3cc2o1 [SKA-134, Naphtho[2,3-d]oxazol-2-amine]				247 to 248
Cc1nc2c(cc(C#N)c3ccccc32)o1 [SKA-135, 2-Methylnaphtho[1,2-d]oxazole-5-carbonitrile]	inactive	inactive		145 to 146
c1ccc2c(c1)ccc1sc(NC3CCCCC3)nc12 [SKA-165, N-Cyclohexylnaphtho[1,2-d]thiazol-2-amine]	completely eliminated activity	completely eliminated activity		
Cc1nc2c(ccc3c(N)cccc32)s1 [SKA-172, 2-Methylnaphtho[1,2-d]thiazol-6-amine]			preserved the selectivity for KCa3.1	
Cc1nc2c(ccc3cccc(N)c32)s1 [SKA-178, 2-Methylnaphtho[1,2-d]thiazol-9-amine]			preserved the selectivity for KCa3.1	87 to 88
Cc1ccc(-c2csc(N)n2)c2ccccc12 [SKA-190, 4-(4-Methylnaphthalen-1-yl)thiazol-2-amine]	somewhat increased KCa channel activating potency	somewhat increased KCa channel activating potency		
CNc1nc2c(cc(C)c3ccccc32)s1 [SKA-204, N,5-Dimethylnaphtho[1,2-d]thiazol-2-amine]				172 to 173
Cc1nc2c(ccc3cccc([N+](=O)[O-])c32)s1 [SKA-216, 2-Methyl-9-nitronaphtho[1,2-d]thiazole]			preserved the selectivity for KCa3.1	151 to 152
Nc1nc(-c2ccc3ccccc3c2)c(Br)s1 [SKA-220, 5-Bromo-4-(naphthalen-2-yl)thiazol-2-amine]	somewhat increased KCa channel activating potency	somewhat increased KCa channel activating potency		
Nc1nc(-c2ccc(-c3ccccc3)cc2)cs1 [SKA-232, 4-Biphenyl-4-yl-thiazol-2-ylamine]	completely devoid of activity	completely devoid of activity		
Nc1ncc(-c2ccc(-c3ccc(-c4cnc(N)s4)cc3)cc2)s1 [SKA-255, Bis-4,4’-(2-amino-4-thiazolyl)biphenyl]	completely devoid of activity	completely devoid of activity		

Compound	Whole-cell KCa2.2 response elicited by 10 µM of activator normalized to 10 µM SKA-31 (described in words) [1]	Whole-cell KCa3.1 response elicited by 10 µM of activator normalized to 10 µM SKA-31 (described in words) [2]	Selectivity between KCa3.1 and KCa2.2 in the 10 µM screen [2]	melting point [°C]
c1ccc(-c2csc(Nc3ccccn3)n2)cc1 [SKA-265, 4-Phenyl-N-(pyridin-2-yl)thiazol-2-amine]	completely devoid of activity	completely devoid of activity		
CCc1cc2sc(N)nc2c2ccccc12 [SKA-306, 5-Ethylnaphtho[1,2-d]thiazol-2-amine]		roughly as potent	as KCa3.1 selective as SKA-111	144 to 145
CCCc1cc2sc(N)nc2c2ccccc12 [SKA-307, 5-Propylnaphtho[1,2-d]thiazol-2-amine]		roughly as potent	as KCa3.1 selective as SKA-111	147 to 150
CC(C)c1cc2sc(N)nc2c2ccccc12 [SKA-308, 5-Isopropylnaphtho[1,2-d]thiazol-2-amine]		roughly as potent	as KCa3.1 selective as SKA-111	179 to 181
Nc1nc2c(cc(-c3ccccc3)c3ccccc32)s1 [SKA-326, 5-Phenylnaphtho[1,2-d]thiazol-2-amine]				177 to 178
CN(C)c1cc2sc(N)nc2c2ccccc12 [SKA-331, N^5,N^5-Dimethylnaphtho[1,2-d]thiazole-2,5-diamine]		roughly as potent	as KCa3.1 selective as SKA-111	171 to 174
Nc1nc2c(cc(-n3ccnc3)c3ccccc32)s1 [SKA-334, 5-(1H-Imidazol-1-yl)naphtho[1,2-d]thiazol-2-amine]				272 to 275
Nc1nc2c(cc(-n3cccn3)c3ccccc32)s1 [SKA-335, 5-(1H-Pyrazol-1-yl)naphtho[1,2-d]thiazol-2-amine]				226 to 227
Nc1nc2c(cc(-n3ccnn3)c3ccccc32)s1 [SKA-339, 5-(1H-1,2,3-Triazol-1-yl)naphtho[1,2-d]thiazol-2-amine]				208
Cc1ccn(-c2cc3sc(N)nc3c3ccccc23)n1 [SKA-340, 5-(3-Methyl-1H-pyrazol-1-yl)naphtho[1,2-d]thiazol-2-amine]				189 to 190
Nc1nc2c(cc(-n3ccc(C(F)(F)F)n3)c3ccccc32)s1 [SKA-341, 5-(3-(Trifluoromethyl)-1H-pyrazol-1-yl)naphtho[1,2-d]thiazol-2-amine]				206 to 207
Cc1cn(-c2cc3sc(N)nc3c3ccccc23)cn1 [SKA-343, 5-(4-Methyl-1H-imidazol-1-yl)naphtho[1,2-d]thiazol-2-amine]				269 to 271
Cc1nccn1-c1cc2sc(N)nc2c2ccccc12 [SKA-344, 5-(2-Methyl-1H-imidazol-1-yl)naphtho[1,2-d]thiazol-2-amine]				264 to 265
Cc1cnn(-c2cc3sc(N)nc3c3ccccc23)c1 [SKA-345, 5-(4-Methyl-1H-pyrazol-1-yl)naphtho[1,2-d]thiazol-2-amine]				249
Nc1nc2c(cc(-n3cncn3)c3ccccc32)s1 [SKA-347, 5-(1H-1,2,4-Triazol-1-yl)naphtho[1,2-d]thiazol-2-amine]				273
